Laboratory results: BindingDB's records for PubMed 2547939 (Abbott Laboratories, 1989)

Columns and labels:
[1] = molecular target: T1, Muscarinic acetylcholine receptor M1 (Rattus norvegicus, UniProt P08482)
T1 sequence (P08482 whole entry): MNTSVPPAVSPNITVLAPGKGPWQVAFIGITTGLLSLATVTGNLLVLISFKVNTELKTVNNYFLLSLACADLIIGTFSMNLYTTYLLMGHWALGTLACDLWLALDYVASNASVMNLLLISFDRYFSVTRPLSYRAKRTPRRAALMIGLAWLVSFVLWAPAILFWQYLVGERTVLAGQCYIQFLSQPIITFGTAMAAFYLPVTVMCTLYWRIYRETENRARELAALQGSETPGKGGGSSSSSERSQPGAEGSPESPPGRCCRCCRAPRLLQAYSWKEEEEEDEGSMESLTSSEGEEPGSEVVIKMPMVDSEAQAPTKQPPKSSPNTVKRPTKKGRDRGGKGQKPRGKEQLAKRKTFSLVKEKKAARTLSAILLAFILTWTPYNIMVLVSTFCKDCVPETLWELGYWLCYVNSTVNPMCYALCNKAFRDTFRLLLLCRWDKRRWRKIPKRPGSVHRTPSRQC

[2] = molecular target: T2, Muscarinic acetylcholine receptor M2 (Rattus norvegicus, UniProt P10980)
T2 sequence (P10980 whole entry): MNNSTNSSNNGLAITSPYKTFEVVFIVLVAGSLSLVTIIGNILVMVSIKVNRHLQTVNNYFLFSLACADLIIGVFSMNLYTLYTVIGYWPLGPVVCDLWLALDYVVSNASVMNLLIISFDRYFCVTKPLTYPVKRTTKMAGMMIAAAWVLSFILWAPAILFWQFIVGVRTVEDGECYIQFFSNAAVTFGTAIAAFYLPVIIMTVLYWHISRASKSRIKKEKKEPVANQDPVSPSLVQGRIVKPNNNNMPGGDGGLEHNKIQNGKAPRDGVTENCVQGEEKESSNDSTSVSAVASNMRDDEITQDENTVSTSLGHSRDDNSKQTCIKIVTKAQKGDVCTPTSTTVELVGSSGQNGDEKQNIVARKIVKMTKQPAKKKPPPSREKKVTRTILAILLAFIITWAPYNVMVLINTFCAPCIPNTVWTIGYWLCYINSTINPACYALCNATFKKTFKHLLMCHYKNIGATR

Ki [2] [nM]	SMILES	Ki [1] [nM]
33.9	CCN(CC)CC1CCCCN1CC(=O)N1c2ccccc2C(=O)Nc2cccnc21 (stereo not drawn) [(AF-DX 116) 11-[2-(2-Diethylaminomethyl-piperidin-1-yl)-acetyl]-5,11-dihydro-benzo[e]pyrido[3,2-b][1,4]diazepin-6-one]	180
	O[Si](CCCN1CCCCC1)(c1ccccc1)C1CCCCC1 (stereo not drawn) [HHSiD]	14.8
